Reference: ChEMBL document CHEMBL5058564, “EUbOPEN Chemogenomics Library 2 (Incucyte)” (2022)

What was measured:
Assay type in all cases: toxicity, cell-based
[1] = test system: Fibroblast; assay: Incucyte cell viability with human fibroblast; conditions: 10 µM, compound concentration 10 uM
[2] = test system: U2OS; assay: Incucyte cell viability with U2OS; conditions: human, 10 µM, compound concentration 10 uM
[3] = test system: HEK-293T; assay: Incucyte cell viability with HEK293T; conditions: human, 10 µM, compound concentration 10 uM
[4] = 0 h, replicate number 1, timepoint 0 hours
[5] = 0 h, replicate number 2, timepoint 0 hours
[6] = 6 h, replicate number 1, timepoint 6 hours
[7] = 6 h, replicate number 2, timepoint 6 hours
[8] = 12 h, replicate number 1, timepoint 12 hours
[9] = 12 h, replicate number 2, timepoint 12 hours
[10] = 18 h, replicate number 1, timepoint 18 hours
[11] = 18 h, replicate number 2, timepoint 18 hours
[12] = 24 h, replicate number 1, timepoint 24 hours
[13] = 24 h, replicate number 2, timepoint 24 hours
Further: unitless GR value; below 1 slowed growth and below 0 cell loss.

| Structure (SMILES) | Growth Rate [1, 5] | Growth Rate [1, 6] | Growth Rate [1, 8] | Growth Rate [1, 10] | Growth Rate [1, 11] | Growth Rate [1, 12] | Growth Rate [1, 13] | Growth Rate [2, 4] | Growth Rate [2, 6] | Growth Rate [2, 8] | Growth Rate [2, 9] | Growth Rate [2, 10] | Growth Rate [2, 12] | Growth Rate [3, 5] | Growth Rate [3, 6] | Growth Rate [3, 8] | Growth Rate [3, 9] | Growth Rate [3, 10] | Growth Rate [3, 11] | Growth Rate [3, 12] | further results |
| --- | --- | --- | --- | --- | --- | --- | --- | --- | --- | --- | --- | --- | --- | --- | --- | --- | --- | --- | --- | --- | --- |
| CC(C)(O)C(=O)N1CCN(c2ccc(C(F)(F)F)c(C3=C(c4c[nH]c5ccccc45)C(=O)NC3=O)c2)CC1 | -0.42 | -0.69 | -0.33 | -0.31 | -0.06 | -0.3 | -0.09 | -0.52 | 0.8 | 0.92 | 0.78 | 0.66 | 0.67 | 0.33 | 0.49 | 0.3 | 0.37 | 0.44 | 0.36 | 0.33 | Growth Rate [1, 4]: -0.17; Growth Rate [1, 7]: 0.17; Growth Rate [1, 9]: 0.04; Growth Rate [2, 5]: 0.29; Growth Rate [2, 7]: 0.91; Growth Rate [2, 11]: 0.68; Growth Rate [2, 13]: 0.58; Growth Rate [3, 7]: 0.88 |
| Cc1cc(C)cc(C(=O)NOCCCCCC(=O)NO)c1 | 0.7 |  | 0.99 |  |  | 0.77 |  | 0.03 | 0.82 | 0.43 | 0.5 | 0.34 | 0.37 | 0.38 |  | 0.54 | 0.67 | 0.24 | 0.37 | 0.15 | Growth Rate [1, 4]: -0.03; Growth Rate [2, 5]: -0.5; Growth Rate [2, 7]: 0.51; Growth Rate [2, 11]: 0.4; Growth Rate [2, 13]: 0.36; Growth Rate [3, 13]: 0.32 |
| Cc1cc(=O)n(C)c2cc(N3C(=O)CC[C@H](NS(=O)(=O)CC(C)C)[C@H]3c3ccc(Cl)cc3)ccc12 |  | -0.91 | -0.73 | -0.76 | -0.4 | -0.65 | -0.38 | -0.56 | 0.78 | 0.8 | 0.96 | 0.5 | 0.7 | 0.38 | -0.08 | 0.15 | 0.9 | 0.21 | 0.76 | 0.18 | Growth Rate [1, 7]: -0.68; Growth Rate [1, 9]: -0.53; Growth Rate [2, 5]: -0.09; Growth Rate [3, 13]: 0.8 |
| C[C@@H]1CC(=O)Nc2cccc(-c3ccc4c(c3)c(-c3cnn(C)c3)nn4C)c2N1 |  | 0.21 |  |  |  |  |  | -0.4 | 0.24 | 0.53 |  | 0.7 | 0.85 | 0.93 | 0.14 | 0.43 | 0.42 | 0.41 | 0.45 | 0.38 | Growth Rate [3, 7]: 0.26; Growth Rate [3, 13]: 0.43 |
| CO[C@H]1CNC[C@@H](OCC2CCC(F)(F)CC2)[C@@H]1Nc1ncc(-c2cncc(C)c2)c2cc(C)c(=O)[nH]c12 | 0.95 | 0.63 | 0.16 | 0.28 | 0.64 | 0.1 | 0.73 | -0.36 | 0.62 | 0.39 | 0.98 | 0.7 | 0.53 | 0.51 |  | 0.87 |  | 0.84 |  | 0.85 | Growth Rate [1, 4]: 0.72; Growth Rate [1, 7]: 0.24; Growth Rate [1, 9]: 0.53; Growth Rate [2, 11]: 0.97; Growth Rate [2, 13]: 1 |
| Cc1sc2c(c1C)C(c1ccc(Cl)cc1)=N[C@@H](CC(=O)NCCCCCCCCNC(=O)COc1cccc3c1C(=O)N(C1CCC(=O)NC1=O)C3=O)c1nnc(C)n1-2 (stereo not given in full) |  | -0.54 | -0.48 | -0.47 | -0.01 | -0.37 | -0.03 | -0.31 | 0.38 | 0.7 | 0.65 | 0.5 | 0.4 | 0.68 | 0.68 | 0.13 | 0.04 | 0.02 | -0.02 | 0.01 | Growth Rate [1, 4]: 0.46; Growth Rate [1, 7]: -0.38; Growth Rate [1, 9]: -0.2; Growth Rate [2, 11]: 0.72; Growth Rate [2, 13]: 0.7; Growth Rate [3, 13]: -0.06 |
| Cc1cc(CN)cc(C)c1-c1ncn(C)c1-c1ccnc2cc(F)ccc12 | 0.5 | 0.31 | 0.5 | 0.18 | 0.64 | 0.09 | 0.58 | -0.16 | 0.54 | 0.64 | 0.55 | 0.92 | 0.79 | 0.31 | 0.86 | 0.93 | 0.96 | 0.79 | 0.92 | 0.87 | Growth Rate [1, 9]: 0.83; Growth Rate [2, 5]: -0.67; Growth Rate [2, 7]: 0.18; Growth Rate [2, 11]: 0.73; Growth Rate [3, 7]: 0.7; Growth Rate [3, 13]: 0.92 |
| CN(C)C(=O)N1CC[C@H](NC2=Nc3cc(F)ccc3N(CC(F)F)c3ccc(Cl)cc32)C1 | -0.03 | -0.43 | 0.6 | 0.62 | 0.82 | 0.32 | 0.81 |  |  |  | 0.92 |  |  | 0.7 | 0.94 | 0.82 | 0.77 | 0.89 | 0.79 | 0.83 | Growth Rate [2, 11]: 0.92; Growth Rate [3, 7]: 0.35; Growth Rate [3, 13]: 0.88 |
| CCn1c(-c2nc3cc(C(=O)N4CCCC(N)C4)ccc3n2C)cc2ccccc21.Cl (stereo not given) | 0.99 | -0.75 | -0.23 | -0.08 | 0.56 | 0.15 | 0.6 | -0.61 | 0.71 | 0.95 |  |  |  | -1 | 0.72 | 0.44 |  | 0.73 |  | 0.83 | Growth Rate [1, 7]: 0.43; Growth Rate [1, 9]: 0.52 |
